Assay results as given in patent US8309734B2 (Hoffmann-La Roche Inc., priority 2008, dated 2012).

molecular target: T1, human GPBAR1 receptor (Homo sapiens, UniProt Q8TDU6); assay: functional cAMP assay in CHO-dhfr(minus) cells expressing human GPBAR1 receptors; assay type: cell-based; settings: cAMP increase (TR-FRET) in CHO-dhfr(minus) cells expressing human GPBAR1; compounds incubated 30 min at 30° C.
T1 construct: expressed in transfected cells
T1 sequence (Q8TDU6 1-330): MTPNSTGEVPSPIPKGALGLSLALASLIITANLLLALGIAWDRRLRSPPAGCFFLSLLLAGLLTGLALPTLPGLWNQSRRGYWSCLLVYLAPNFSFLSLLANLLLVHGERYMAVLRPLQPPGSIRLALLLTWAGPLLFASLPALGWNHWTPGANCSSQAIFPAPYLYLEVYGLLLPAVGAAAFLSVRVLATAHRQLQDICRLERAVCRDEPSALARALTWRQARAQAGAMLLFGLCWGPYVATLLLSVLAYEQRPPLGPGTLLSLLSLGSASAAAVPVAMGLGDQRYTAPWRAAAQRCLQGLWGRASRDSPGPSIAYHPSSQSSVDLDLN
Method: The final clone was verified by DNA sequence analysis. The plasmid was transfected into CHO cells deficient in dihydrofolate reductase activity (CHO-dhfr-) using Lipofectamine plus (Invitrogen). Clones were isolated in limited dilution conditions and identified by activities in the cAMP assay using lithocholic acid as agonist.
The growth medium was exchanged with Krebs Ringer Bicarbonate buffer with 1 mM IBMX and incubated at 30° C. for 30 mM. Compounds were added to a final assay volume of 100 μl and incubated for 30 min at 30° C. […] The time-resolved energy transfer is measured by a TRF reader (Evotec Technologies GmbH, Hamburg Germany), equipped with a ND:YAG laser as excitation source. The plate is measured twice with the excitation at 355 nm and at the emission with a delay of 100 ns and a gate of 100 ns, total exposure time 10s at 730 (bandwith 30 nm) or 645 nm (bandwith 75 nm), respectively.
EC50 values were determined using Activity Base analysis (ID Business Solution, Limited). […] Specificity for GPBAR1 was tested in non-transfected CHO cells in the same assay as above.

Compound | EC50
O=C(c1cccnc1Oc1cc(Cl)ccc1Cl)N1CCN(CC2CCC2)c2ccccc21 [Example 139, (4-Cyclobutylmethyl-3,4-dihydro-2H-quinoxalin-1-yl)-[2-(2,5-dichloro-phenoxy)-pyridin-3-yl]-methasone] | 926 nM
CCOC(=O)CCN1CCN(C(=O)c2cc(F)cnc2Oc2cc(Cl)ccc2Cl)c2ccccc21 [Example 156, 3-{4-[2-(2,5-Dichloro-phenoxy)-5-fluoro-pyridine-3-carbonyl]-3,4-dihydro-2H-quinoxalin-1-yl}-propionic acid ethyl ester] | 841 nM
CN(C(=O)c1cc(F)ccc1Oc1cc(Cl)ccc1Cl)c1ccccc1 [Example 118, 2-(2,5-Dichloro-phenoxy)-5-fluoro-N-methyl-N-phenyl-benzamide] | 771 nM
O=C(c1ccncc1Oc1ccc(Cl)cc1Cl)N1CCCc2ccc(F)cc21 [Example 96, [3-(2,4-Dichloro-phenoxy)-pyridin-4-yl]-(7-fluoro-3,4-dihydro-2H-quinolin-1-yl)-methanone] | 328 nM
CC(C)CN1CCN(C(=O)c2cccnc2Oc2cc(Cl)ccc2Cl)c2ccccc21 [Example 137, [2-(2,5-Dichloro-phenoxy)-pyridin-3-yl]-(4-isobutyl-3,4-dihydro-2H-quinoxalin-1-yl)-methanone] | 201 nM
COc1ccccc1N(C)C(=O)c1ccncc1Oc1ccc(Cl)cc1Cl [Example 101, 3-(2,4-Dichloro-phenoxy)-N-(2-methoxy-phenyl)-N-methyl-isonicotinamide] | 150 nM
COc1ccccc1N(C)C(=O)c1ccncc1Oc1cc(Cl)ccc1Cl [Example 95, 3-(2,5-Dichloro-phenoxy)-N-(2-methoxy-phenyl)-N-methyl-isonicotinamide] | 28 nM
Cc1ccc(Cl)cc1N(C)C(=O)c1cccnc1Oc1cc(Cl)ccc1Cl [Example 50, N-(5-Chloro-2-methyl-phenyl)-2-(2,5-dichloro-phenoxy)-N-methyl-nicotinamide] | 631 nM
CN(C(=O)c1ccncc1Oc1cc(Cl)ccc1Cl)c1ccccc1Cl [Example 94, N-(2-Chloro-phenyl)-3-(2,5-dichloro-phenoxy)-N-methyl-isonicotinamide] | 157 nM
Cc1ccccc1N(C)C(=O)c1ccncc1Oc1ccc(F)c(Cl)c1 [Example 106, 3-(3-Chloro-4-fluoro-phenoxy)-N-methyl-N-o-tolyl-isonicotinamide] | 425 nM
CN(C(=O)c1cccnc1Oc1cc(Cl)ccc1Cl)c1c(F)cccc1F [Example 64, 2-(2,5-Dichloro-phenoxy)-N-(2,6-difluoro-phenyl)-N-methyl-nicotinamide] | 155 nM
COC(=O)c1ccc(C#Cc2cc(Cl)c(Oc3ncccc3C(=O)N3CCN(C4CC4)c4ccccc43)cc2Cl)cc1Cl [Example 167, 2-Chloro-4-{2,5-dichloro-4-[3-(4-cyclopropyl-3,4-dihydro-2H-quinoxaline-1-carbonyl)-pyridin-2-yloxy]-phenylethynyl}-benzoic acid methyl ester] | 211 nM
CC1CCc2ccccc2N1C(=O)c1cc(F)cnc1Oc1cc(Cl)ccc1Cl (stereo not drawn) [Example 80, [2-(2,5-Dichloro-phenoxy)-5-fluoro-pyridin-3-yl]-(2-methyl-3,4-dihydro-2H-quinolin-1-yl)-methanone] | 630 nM
CCN(C(=O)c1cccnc1Oc1cc(Cl)ccc1Cl)c1ccccc1 [Example 32, 2-(2,5-Dichloro-phenoxy)-N-ethyl-N-phenyl-nicotinamide] | 70 nM
O=C(c1cccnc1Oc1cc(Cl)ccc1Cl)N1CCCc2cc(F)cc(F)c21 [Example 44, [2-(2,5-Dichloro-phenoxy)-pyridin-3-yl]-(6,8-difluoro-3,4-dihydro-2H-quinolin-1-yl)-methanone] | 44 nM
Cc1ccccc1N(C)C(=O)c1ccncc1Oc1cc(Cl)ccc1Cl [Example 93, 3-(2,5-Dichloro-phenoxy)-N-methyl-N-o-tolyl-isonicotinamide] | 57 nM
CCc1cccc(Oc2ncccc2C(=O)N2CCCc3ccccc32)c1 [Example 20, (3,4-Dihydro-2H-quinolin-1-yl)-[2-(3-ethyl-phenoxy)-pyridin-3-yl]-methanone] | 473 nM
O=C(c1cccnc1Oc1cccc(Cl)c1)N1CCCc2ccccc21 [Example 3, [2-(3-Chloro-phenoxy)-pyridin-3-yl]-(3,4-dihydro-2H-quinolin-1-yl)-methanone] | 192 nM
O=C(c1cc(F)cnc1Oc1ccc(F)c(Cl)c1)N1CCCc2cc(F)c(F)cc21 [Example 87, [2-(3-Chloro-4-fluoro-phenoxy)-5-fluoro-pyridin-3-yl]-(6,7-difluoro-3,4-dihydro-2H-quinolin-1-yl)-methanone] | 75 nM
N#Cc1cccc(Oc2ncccc2C(=O)N2CCCc3ccccc32)c1 [Example 7, 3-[3-(3,4-Dihydro-2H-quinoline-1-carbonyl)-pyridin-2-yloxy]-benzonitrile] | 575 nM
COc1ncccc1N(C)C(=O)c1cc(F)cnc1Oc1cc(Cl)ccc1Cl [Example 145, 2-(2,5-Dichloro-phenoxy)-5-fluoro-N-(2-methoxy-pyridin-3-yl)-N-methyl-nicotinamide] | 29 nM
Cc1cc(Cl)ncc1N(C)C(=O)c1cccnc1Oc1cc(Cl)ccc1Cl [Example 61, N-(6-Chloro-4-methyl-pyridin-3-yl)-2-(2,5-dichloro-phenoxy)-N-methyl-nicotinamide] | 1980 nM

Further molecules by falling EC50, results first:

EC50 | Compound
1710 nM | CC1Cc2ccccc2N1C(=O)c1ccccc1Oc1cc(Cl)ccc1Cl (stereo not drawn) [Example 112, [2-(2,5-Dichloro-phenoxy)-phenyl]-(2-methyl-2,3-dihydro-indol-1-yl)-methanone]
1650 nM | CN(C(=O)c1cccnc1Oc1cc(Cl)ccc1Cl)c1ccccc1N [Example 134, N-(2-Amino-phenyl)-2-(2,5-dichloro-phenoxy)-N-methyl-nicotinamide]
820 nM | CN(C(=O)c1cccnc1Oc1cc(Cl)ccc1Cl)c1ccccc1C#N [Example 62, N-(2-Cyano-phenyl)-2-(2,5-dichloro-phenoxy)-N-methyl-nicotinamide]
662 nM | CN(C(=O)c1ccncc1Oc1ccc(F)c(Cl)c1)c1ccccc1Cl [Example 107, 3-(3-Chloro-4-fluoro-phenoxy)-N-(2-chloro-phenyl)-N-methyl-isonicotinamide]
418 nM | O=C(c1cccnc1Oc1cc(Cl)ccc1Cl)N1CCOc2c(F)cc(F)cc21 [Example 73, [2-(2,5-Dichloro-phenoxy)-pyridin-3-yl]-(6,8-difluoro-2,3-dihydro-benzo[1,4]oxazin-4-yl)-methanone]
341 nM | COC(=O)CNC(=O)c1cc(Cl)c(Oc2ncccc2C(=O)N2CCN(C3CC3)c3ccccc32)cc1Cl [Example 183, {2,5-Dichloro-4-[3-(4-cyclopropyl-3,4-dihydro-2H-quinoxaline-1-carbonyl)-pyridin-2-yloxy]-benzoylamino}-acetic acid methyl ester]
340 nM | O=C(c1cccnc1Oc1cc(Cl)c(Br)cc1Cl)N1CCCc2ccccc21 [Example 165, [2-(4-Bromo-2,5-dichloro-phenoxy)-pyridin-3-yl]-(3,4-dihydro-2H-quinolin-1-yl)-methanone]
165 nM | N#Cc1ccc(Oc2cc(Cl)ccc2Cl)c(C(=O)N2CCCc3ccccc32)c1 [Example 119, 4-(2,5-Dichloro-phenoxy)-3-(3,4-dihydro-2H-quinoline-1-carbonyl)-benzo nitrile]
145 nM | O=C(c1cc(Cl)cnc1Oc1cc(Cl)ccc1Cl)N1CCCc2ccccc21 [Example 27, [5-Chloro-2-(2,5-dichloro-phenoxy)-pyridin-3-yl]-(3,4-dihydro-2H-quinolin-1-yl)-methanone]
102 nM | O=C(c1ccccc1Oc1cc(Cl)ccc1Cl)N1CCCc2cc(F)c(F)cc21 [Example 111, [2-(2,5-Dichloro-phenoxy)-phenyl]-(6,7-difluoro-3,4-dihydro-2H-quinolin-1-yl)-methanone]
63 nM | O=C(O)CNC(=O)CCc1cc(Cl)c(Oc2ncccc2C(=O)N2CCN(C3CC3)c3ccccc32)cc1Cl [Example 177, (3-{2,5-Dichloro-4-[3-(4-cyclopropyl-3,4-dihydro-2H-quinoxaline-1-carbonyl)-pyridin-2-yloxy]-phenyl}-propionylamino)-acetic acid]
59 nM | Cc1cccc(Cl)c1N(C)C(=O)c1cccnc1Oc1cc(Cl)ccc1Cl [Example 51, N-(2-Chloro-6-methyl-phenyl)-2-(2,5-dichloro-phenoxy)-N-methyl-nicotinamide]
35 nM | O=C(c1cccnc1Oc1cc(Cl)ccc1Cl)N1CCN(CC2CC2)c2ccccc21 [Example 138, (4-Cyclopropylmethyl-3,4-dihydro-2H-quinoxalin-1-yl)-[2-(2,5-dichloro-phenoxy)-pyridin-3-yl]-methanone]
28 nM | O=C(c1cccnc1Oc1cc(Cl)ccc1Cl)N1CCCc2cc(F)ccc21 [Example 37, [2-(2,5-Dichloro-phenoxy)-pyridin-3-yl]-(6-fluoro-3,4-dihydro-2H-quinolin-1-yl)-methanone]
